US9399047B2, “Composition and method to alleviate joint pain using phospholipids and roe extract” (U.S. NUTRACEUTICALS, LLC, priority 2009, dated 2016)

How the values were obtained:
solubility = assay type: physicochemical
From the text: It is also possible to use a pure diol of the S,S′ astaxanthin, including a synthetic diol with a surfactant and/or the low molecular weight hyaluronic acid. It is possible to use that pure diol in combination with the EPA rich algae based oil or other fish, roe extract, or plant based oil and/or phospholipid and/or surfactant as described above, and which is admixed with either astaxanthin derived from Haematococcus pluvialis or the free diol form in substantially pure S,S′ enantiomer form. It is possible to add synthetically derived mixed enantiomers of the diol. The diol of the S,S′ astaxanthin is possible because in cases of krill oil and possibly algae based oils and Hp derived and other types, there are principally diesters and monoesters respectively with very little diol, which is insoluble. […] It is possible to synthesize asymmetrically the S,S′ pure diol. Despite the pure diol's poor solubility in some examples, there may be an active transport mechanism related to its bioavailability, or conversely, that only in the diol form is the monoester or diester forms transferred from the intestines to the blood. […]

[1] = cited from earlier work
NO, PGE-2 and TNF-Alpha = conditions: induced uveitis; cited from earlier work
healthy adults = conditions: eight weeks, 6 mg per day; cited from earlier work
[2] = tested on: cellular membrane lipid peroxidation; conditions: cited from earlier work
rats = conditions: cited from earlier work
[3] = cited from earlier work; remark: listed apart in the source
lens epithelial cells = conditions: in vitro, umol/L concentrations; cited from earlier work
[4] = cited from earlier work; remark: listed apart in the source
[5] = serum; cited from earlier work
[6] = tested on: C-Reactive Protein (C-RP); conditions: human subjects with high risk levels of C-RP, three months of treatment; cited from earlier work
inflammatory markers = conditions: astaxanthin 1 mg/kg, cited from earlier work
[7] = 4 mgs/day, compared to untreated subjects; cited from earlier work
[8] = tested on: photo-receptors, ganglion and neuronal cell; conditions: cited from earlier work

Structure (SMILES): CC1=C(/C=C/C(C)=C/C=C/C(C)=C/C=C/C=C(C)/C=C/C=C(C)/C=C/C2=C(C)C(=O)[C@@H](O)CC2(C)C)C(C)(C)C[C@H](O)C1=O [diol of the S,S′ astaxanthin]
- solubility (solubility): insoluble

Structure (SMILES): CC1=C(/C=C/C(C)=C/C=C/C(C)=C/C=C/C=C(C)/C=C/C=C(C)/C=C/C2=C(C)C(=O)[C@@H](O)CC2(C)C)C(C)(C)C[C@H](O)C1=O [free astaxanthin diol]
- uptake relative to esterified astaxanthin ([1]; human plasma, feeding studies): 4-5 times

Structure (SMILES): CCCCCCCCCCCCCCCC(=O)O[C@H]1CC(C)(C)C(/C=C/C(C)=C/C=C/C(C)=C/C=C/C=C(C)/C=C/C=C(C)/C=C/C2=C(C)C(=O)[C@@H](OC(=O)CCCCCCCCCCCCCCC)CC2(C)C)=C(C)C1=O [(3R,3′R-astaxanthin dipalmitate, reference compound]
- relative absorption of astaxanthin compared to the other two isomers ([1]; men, astaxanthin fatty acyl diesters (Coral-Hinostroza et al. 2004)): higher relative absorption

Structure (SMILES): CC1=C(/C=C/C(C)=C/C=C/C(C)=C/C=C/C=C(C)/C=C/C=C(C)/C=C/C2=C(C)C(=O)[C@@H](O)CC2(C)C)C(C)(C)C[C@H](O)C1=O [Astaxanthin, 3,3′-dihydroxy-β-β-carotene-4,4′-dione]
- ocular anti-inflammatory activity by suppression of NO, PGE-2 and TNF-Alpha (NO, PGE-2 and TNF-Alpha): dose dependant ocular anti-inflammatory activity
- negative effect of supplementation (healthy adults): no negative effect
- effect on pro-oxidant activity of Vioxx [2]: negate the pro-oxidant activity of Vioxx
- Oral LD 50 (rats; rat, in vivo, po): 600 mg/kg
- NOAEL (rats; rats): 465 mg/kg
- free radical quenching ability, times more powerful than Vitamin C ([3]; versus Vitamin C): 65 times
- free radical quenching ability, times more powerful than Vitamin E ([3]; versus Vitamin E): 14 times
- free radical quenching ability, times more powerful than lutein ([3]; versus lutein): 47 times
- free radical quenching ability, times more powerful than β-carotene ([3]; versus β-carotene): 54 times
- UVB induced lipid peroxidative mediated cell damage (lens epithelial cells): suppresses
- quenching of singlet oxygen, times more powerful than Vitamin E ([4]; versus Vitamin E): about 50 times
- quenching of singlet oxygen, relative to lutein ([4]; versus lutein): three times more powerful
- quenching of singlet oxygen, times more powerful than β-carotene ([4]; versus β-carotene): 11 times
- Cmax [5]: 65 ng/mL
- T1/2 [5]: 16 h
- Tmax [5]: 8 h
- patients whose serum C-RP levels dropped below the risk level [6]: 43%
- down regulates TNF-alpha production (inflammatory markers; in vitro and in vivo): 75%
- down regulates prostaglandin E-2 production (PGE-2) (inflammatory markers; in vitro and in vivo): 75%
- inhibits nitric oxide synthase (Nos) expression of nitric oxide (inflammatory markers; in vitro and in vivo): 58%
- effects on inflammatory markers compared with prednisolone (inflammatory markers): nearly as effective as prednisolone
- post exercise joint fatigue following strenuous knee exercise [7]: prevented post exercise joint fatigue
- crossing of the blood-brain-retina barrier ([8]; direct measurement of retinal astaxanthin concentrations): crosses the blood-brain-retina barrier
- photon induced damage of photo-receptors, ganglion and neuronal cell damage ([8]; in vivo): protection
